The nature of the data set: Equilibrium solubility in aqueous solutions containing different concentrations of Captisol. It counts as physicochemical. The note with it: aqueous solution containing Captisol, 20 °C, thermodynamic from solid, free form equivalent. On the procedure:
Captisol® improves the solubility of the compound of Formula I in free base form, HCl salt and tosylate salt. Solubility of the above compounds was determined by equilibrating the powder with aqueous solutions containing different concentration of Captisol® at ambient temperature (20° C.).
The solutions were prepared in accordance with methods known to one of skill in the art.

SMILES strings stand for the structures. Structures can show the parent of a compound that is named as a salt. Where two headings read alike, the source gives them in different places.

For `C[C@@H](OC[C@@]1(c2ccccc2)CC[C@]2(CCC(=O)N2)CN1)c1cc(C(F)(F)F)cc(C(F)(F)F)c1` [Compound I Tosylate salt], the solubility was found to be 150 µg/mL (pH 5, aqueous buffer, Captisol 0 % w/v, pH 5 (NaOH adjusted), 20° C., read-out: Solubility of Compound I Tosylate salt at pH 5 (pH adjusted by NaOH)); 940 µg/mL (pH 5, aqueous with cosolvent or surfactant or cyclodextrin, Captisol 10 % w/v, pH 5 (NaOH adjusted), 20° C., read-out: Solubility of Compound I Tosylate salt at pH 5 (pH adjusted by NaOH)); 1800 µg/mL (pH 5, aqueous with cosolvent or surfactant or cyclodextrin, Captisol 20 % w/v, pH 5 (NaOH adjusted), 20° C., read-out: Solubility of Compound I Tosylate salt at pH 5 (pH adjusted by NaOH)); 4100 µg/mL (pH 5, aqueous with cosolvent or surfactant or cyclodextrin, Captisol 40 % w/v, pH 5 (NaOH adjusted), 20° C., read-out: Solubility of Compound I Tosylate salt at pH 5 (pH adjusted by NaOH)).
Consider `C[C@@H](OC[C@@]1(c2ccccc2)CC[C@]2(CCC(=O)N2)CN1)c1cc(C(F)(F)F)cc(C(F)(F)F)c1` [Compound I free base], for which the solubility reads like this: (pH 5.2, aqueous buffer, Captisol 0 % w/v, pH 5.2 citric acid buffered, 20° C., read-out: Solubility of Compound I free base at pH 5.2 (citric acid buffered)) 170 µg/mL; (pH 5.2, aqueous with cosolvent or surfactant or cyclodextrin, Captisol 2 % w/v, pH 5.2 citric acid buffered, 20° C., read-out: Solubility of Compound I free base at pH 5.2 (citric acid buffered)) 2200 µg/mL; (pH 5.2, aqueous with cosolvent or surfactant or cyclodextrin, Captisol 5 % w/v, pH 5.2 citric acid buffered, 20° C., read-out: Solubility of Compound I free base at pH 5.2 (citric acid buffered)) 4600 µg/mL; (pH 5.2, aqueous with cosolvent or surfactant or cyclodextrin, Captisol 10 % w/v, pH 5.2 citric acid buffered, 20° C., read-out: Solubility of Compound I free base at pH 5.2 (citric acid buffered)) 7200 µg/mL; (pH 5.2, aqueous with cosolvent or surfactant or cyclodextrin, Captisol 20 % w/v, pH 5.2 citric acid buffered, 20° C., read-out: Solubility of Compound I free base at pH 5.2 (citric acid buffered)) 12000 µg/mL; (pH 7.2, aqueous buffer, Captisol 0 % w/v, pH 7.2 phosphate buffered, 20° C., read-out: Solubility of Compound I free base at pH 7.2 (phosphate buffered)) 2 µg/mL. Besides, the solubility by setting is: (pH 7.2, aqueous with cosolvent or surfactant or cyclodextrin, Captisol 2 % w/v, pH 7.2 phosphate buffered, 20° C., read-out: Solubility of Compound I free base at pH 7.2 (phosphate buffered)) 50 µg/mL; (pH 7.2, aqueous with cosolvent or surfactant or cyclodextrin, Captisol 5 % w/v, pH 7.2 phosphate buffered, 20° C., read-out: Solubility of Compound I free base at pH 7.2 (phosphate buffered)) 150 µg/mL; (pH 7.2, aqueous with cosolvent or surfactant or cyclodextrin, Captisol 10 % w/v, pH 7.2 phosphate buffered, 20° C., read-out: Solubility of Compound I free base at pH 7.2 (phosphate buffered)) 290 µg/mL; (pH 7.2, aqueous with cosolvent or surfactant or cyclodextrin, Captisol 20 % w/v, pH 7.2 phosphate buffered, 20° C., read-out: Solubility of Compound I free base at pH 7.2 (phosphate buffered)) 610 µg/mL.
Take `C[C@@H](OC[C@@]1(c2ccccc2)CC[C@]2(CCC(=O)N2)CN1)c1cc(C(F)(F)F)cc(C(F)(F)F)c1` [Compound I HCl salt]: the solubility is, setting by setting: (pH 5, aqueous buffer, Captisol 0 % w/v, pH 5 (NaOH adjusted), ambient temperature (20° C.), read-out: Solubility of Compound I HCl salt at pH 5 (pH adjusted by NaOH)) 50 µg/mL; (pH 5, aqueous with cosolvent or surfactant or cyclodextrin, Captisol 2 % w/v, pH 5 (NaOH adjusted), ambient temperature (20° C.), read-out: Solubility of Compound I HCl salt at pH 5 (pH adjusted by NaOH)) 3500 µg/mL; (pH 5, aqueous with cosolvent or surfactant or cyclodextrin, Captisol 5 % w/v, pH 5 (NaOH adjusted), ambient temperature (20° C.), read-out: Solubility of Compound I HCl salt at pH 5 (pH adjusted by NaOH)) 4700 µg/mL; (pH 5, aqueous with cosolvent or surfactant or cyclodextrin, Captisol 10 % w/v, pH 5 (NaOH adjusted), ambient temperature (20° C.), read-out: Solubility of Compound I HCl salt at pH 5 (pH adjusted by NaOH)) 10000 µg/mL.

Usually solubility stands for how much of the substance goes into solution per volume.

The values are drawn from US20050153999A1, “Pharmaceutical compositions” (SCHERING CORPORATION, priority 2003, published 2005).
